Assay results published in patent publication US4604381A, “4-demethoxy-13-dihydrodaunorubicin and use thereof” (Farmitalia Carlo Erba S.p.A., priority 1984, dated 1986).
≈ marks a conversion by molar mass, not a printed value. Like-named read-outs stand apart in the source and are kept apart here.

What was measured:
Gross leukemia = test: Activity against Gross leukemia in C3H mice; assay type: in vivo; conditions: i.v. on day 1
Description: (§1) Activity against Gross leukemia
The experiments were performed on C3H mice inoculated i.v. with 2×10^6 leukemic cells/mouse.
as §1

HeLa cells = test: Colony inhibition test on HeLa cells (cytotoxicity); assay type: cell-based; conditions: Homo sapiens; for IC50: read-out: DI50 (dose causing 50% inhibition)
Description: Cytotoxicity. Colony inhibition test on HeLa cells.
The test was carried on HeLa according to the method described in J. Med. Chem., 1975, 18, 703. Exponentially growing cells (2 days after inoculation) were treated with several concentrations of daunorubicin, 4-demethoxydaunorubicin, and 4-demethoxy-13-dihydrodaunorubicin.
After 24 hours of exposure to the drugs, the cells were washed, trypsinized and plated (200 cells/plate). On day 6 the colonies containing more than 50 cells were counted. The dose causing 50% inhibition was calculated on the basis of dose-reponsive curves.
Colony inhibition on HeLa cells^a
^b % respect with control

leukemia P 388 = test: Activity against ascitic leukemia P 388 in CDF-1 mice; assay type: in vivo; conditions: i.p. on day 1
Description: Activity against ascitic leukemia P 388
The experiments were performed on CDF-1 mice inoculated i.p. with 10^6 leukemic cells/mouse.

[1] = tested on: advanced mammary Carcinoma; test: Activity against advanced mammary carcinoma in C3H female mice; assay type: in vivo; conditions: once a week × 4 from palpable tumor; for growth % on day 48: controls 3476
Description: Activity against advanced mammary Carcinoma^a
The experiments were performed on C3H female mice inoculated
with 2 × 10^6 tumor cells/mouse
^a treatment once a week × 4, starting when the tumor was […]

[2] = HeLa, 24 h, read-out: % Colonies (% respect with control)

Question: What does the source list for `CC(O)[C@]1(O)Cc2c(O)c3c(c(O)c2[C@@H](O[C@H]2C[C@H](N)[C@H](O)[C@H](C)O2)C1)C(=O)c1ccccc1C3=O` (stereo partly shown) [4-demethoxy-13-dihydrodaunorubicin]?
Answer: T/C % (Gross leukemia; 0.84 mg/kg): 200%; toxic deaths (Gross leukemia; 0.84 mg/kg): 0/10; T/C % (Gross leukemia; 1.26 mg/kg): 250%; toxic deaths (Gross leukemia; 1.26 mg/kg): 0/10; T/C % (Gross leukemia; 1.9 mg/kg): 258%; toxic deaths (Gross leukemia; 1.9 mg/kg): 0/10; activity at 0.00156 µg/mL (HeLa cells; [2]): 100%; activity at 0.0031 µg/mL (HeLa cells; [2]): 45%; activity at 0.0062 µg/mL (HeLa cells; [2]): 9%; activity at 0.0125 µg/mL (HeLa cells; [2]): 0%; IC50 (HeLa cells; HeLa, 24 h): 3 ng/mL (≈ 0.00601 µM); T/C % (leukemia P 388; 0.14 mg/kg): 130%; toxic deaths (leukemia P 388; 0.14 mg/kg): 0/10; T/C % (leukemia P 388; 0.22 mg/kg): 160%; toxic deaths (leukemia P 388; 0.22 mg/kg): 0/10; T/C % (leukemia P 388; 0.33 mg/kg): 170%; toxic deaths (leukemia P 388; 0.33 mg/kg): 0/10; T/C % (leukemia P 388; 0.5 mg/kg): 170%; toxic deaths (leukemia P 388; 0.5 mg/kg): 3/10; inhibition % on day 48 ([1]; 0.6 mg/kg): 0%; growth % on day 48 ([1]; 0.6 mg/kg): 5124%; inhibition % on day 48 ([1]; 0.8 mg/kg): 3%; growth % on day 48 ([1]; 0.8 mg/kg): 3374%; inhibition % on day 48 ([1]; 1.2 mg/kg): 65%; growth % on day 48 ([1]; 1.2 mg/kg): 1201%

Question: What does the source list for `CC(=O)[C@]1(O)Cc2c(O)c3c(c(O)c2[C@@H](O[C@H]2C[C@H](N)[C@H](O)[C@H](C)O2)C1)C(=O)c1ccccc1C3=O` [4-demethoxydaunorubicin]?
Answer: T/C % (Gross leukemia; 1.9 mg/kg): 233%; toxic deaths (Gross leukemia; 1.9 mg/kg): 0/10; T/C % (Gross leukemia; 2.5 mg/kg): 233%; toxic deaths (Gross leukemia; 2.5 mg/kg): 0/10; T/C % (Gross leukemia; 3.3 mg/kg): 266%; toxic deaths (Gross leukemia; 3.3 mg/kg): 0/10; activity at 0.0015 µg/mL (HeLa cells; HeLa, 1.5 ng/ml, 24 hours exposure, read-out: % Colonies (% respect with control)): 126%; activity at 0.0031 µg/mL (HeLa cells; HeLa, 3.1 ng/ml, 24 hours exposure, read-out: % Colonies (% respect with control)): 73%; activity at 0.0062 µg/mL (HeLa cells; HeLa, 6.2 ng/ml, 24 hours exposure, read-out: % Colonies (% respect with control)): 37%; activity at 0.0125 µg/mL (HeLa cells; HeLa, 12.5 ng/ml, 24 hours exposure, read-out: % Colonies (% respect with control)): 10%; activity at 0.025 µg/mL (HeLa cells; HeLa, 25 ng/ml, 24 hours exposure, read-out: % Colonies (% respect with control)): 0%; IC50 (HeLa cells; HeLa colony inhibition, 24 hours exposure): 5.5 ng/mL (≈ 0.0111 µM); T/C % (leukemia P 388; 0.33 mg/kg): 150%; toxic deaths (leukemia P 388; 0.33 mg/kg): 0/10; T/C % (leukemia P 388; 0.5 mg/kg): 170%; toxic deaths (leukemia P 388; 0.5 mg/kg): 0/10; T/C % (leukemia P 388; 0.75 mg/kg): 155%; toxic deaths (leukemia P 388; 0.75 mg/kg): 3/10; inhibition % on day 48 ([1]; 0.8 mg/kg): 0%; growth % on day 48 ([1]; 0.8 mg/kg): 4322%; inhibition % on day 48 ([1]; 1.2 mg/kg): 42%; growth % on day 48 ([1]; 1.2 mg/kg): 2029%

Question: For `COc1cccc2c1C(=O)c1c(O)c3c(c(O)c1C2=O)C[C@@](O)(C(C)=O)C[C@@H]3O[C@H]1C[C@H](N)[C@H](O)[C@H](C)O1` [daunorubicin], which T/C % (Gross leukemia; 10 mg/kg) is on record?
Answer: Its T/C % is 150%.

Question: What about the toxic deaths (Gross leukemia; 10 mg/kg) of the same compound?
Answer: The toxic deaths was 0/10.

Question: And the T/C % (Gross leukemia; 15 mg/kg)?
Answer: The T/C % was 183%.

Question: What about the toxic deaths (Gross leukemia; 15 mg/kg) of the same compound?
Answer: Its toxic deaths is 0/10.

Question: And the T/C % (Gross leukemia; 22.5 mg/kg)?
Answer: Its T/C % is 233%.

Question: And the toxic deaths (Gross leukemia; 22.5 mg/kg)?
Answer: The toxic deaths was 0/10.

Question: What about the activity at 0.0062 µg/mL (HeLa cells; [2]) of the same compound?
Answer: Its activity at 0.0062 µg/mL is 92%.

Question: What about the activity at 0.0125 µg/mL (HeLa cells; [2]) of the same compound?
Answer: The activity at 0.0125 µg/mL was 32%.

Question: What about the activity at 0.025 µg/mL (HeLa cells; [2]) of the same compound?
Answer: Its activity at 0.025 µg/mL is 3%.

Question: And the IC50 (HeLa cells; HeLa, 24 h)?
Answer: The IC50 was 11 ng/mL (≈ 0.0209 µM).

Question: And the T/C % (leukemia P 388; 4.4 mg/kg)?
Answer: The T/C % was 180%.

Question: What about the toxic deaths (leukemia P 388; 4.4 mg/kg) of the same compound?
Answer: Its toxic deaths is 0/10.

Question: And the T/C % (leukemia P 388; 6.6 mg/kg)?
Answer: Its T/C % is 168%.

Question: And the toxic deaths (leukemia P 388; 6.6 mg/kg)?
Answer: Its toxic deaths is 2/10.
